26 compounds from patent publication US4771057A, “Reduced pyridyl derivatives with cardiovascular regulating properties” (University of Alberta, priority 1986, dated 1988) can be followed below.

One assay deals with guinea pig ileal longitudinal smooth muscle. Kind of assay: Calcium channel antagonist testing: inhibition of muscarinic receptor-mediated Ca2+-dependent contraction (response to CD) of guinea pig ileal longitudinal smooth muscle. The conditions noted are these: 50% inhibition of tonic contraction to CD 5×10^-7 M; compound added 10 min before CD; 37° C., pH 7.4; read-out: Calcium channel antagonist act., inhib. act. on contractile response to CD, ID50. Type of assay: cell-based. As for the experimental part: Male albino guinea pigs (body weight 300-450 g) were sacrificed by decapitation. The intestine was removed above the ileo-caecal junction. Longitudinal smooth muscle segments of 2 cm length were mounted under a resting tension of 300-400 mg. […] The muscles were equilibrated for 1 h with a solution change every 15 min. Two successive control contractions were elicited at 15 min intervals with 5×10^-7 M cis-2-methyl- 4-dimethylaminomethyl-1,3-dioxolane methiodide (CD). The isometric contractions were recorded with a force displacement transducer (FT 03C) on a GRASS physiograph. The means of the two contractile responses was taken as the 100% value for the tonic (slow) component of the response. The muscle was washed with Hepes saline solution and was allowed to re-equilibrate. The calcium antagonist (test compound) was added ten min before the dose-response for CD was determined. The drug-induced inhibition of contraction was expressed as percent of control. The ID50 values were graphically determined from the concentration-response curves.
As to “Diethyl 2,6-dimethyl-4-{3'-[N--methoxycarbonyl-1',2'-(1',6'-)dihydropyridyl]}-1,4-dihydropyridine-3,5-dicarboxylate [Compound D-33]”, the IC50 worked out at 0.18 µM.

For the compound “Diethyl 2,6-dimethyl-4-{3'-[N--phenoxycarbonyl-1',2'-(1',6'-)dihydropyridyl]}-1,4-dihydropyridine-3,5-dicarboxylate [Compound D-37]”, the IC50 was 0.865 µM. In the case of “Diethyl 2,6-dimethyl-4-{3'-[N--t-butoxycarbonyl-1',2'-(1',6'-)dihydropyridyl]}-1,4-dihydropyridine-3,5-dicarboxylate [Compound D-40]”, the IC50 is 0.672 µM. Consider “Diisobutyl 2,6-dimethyl-4-{3'-[N--methoxycarbonyl-1',2'(1',6'-)dihydropyridyl]}-1,4-dihydropyridine-3,5-dicarboxylate [Compound D-35]”, for which the IC50 came out at 0.771 µM. Take “Diisobutyl 2,6-dimethyl-4-{3'-[N--phenoxycarbonyl-1',2'-(1',6'-)dihydropyridyl]}-1,4-dihydropyridine-3,5-dicarboxylate [Compound D-39]”: the IC50 was 6.46 µM. The same measure, in the same setting: to “Diisobutyl 2,6-dimethyl-4-{3'-[N--t-butoxycarbonyl-1',2'-(1',6'-)dihydropyridyl]}-1,4-dihydropyridine-3,5-dicarboxylate [Compound D-42]” belongs 3.42 µM; to “Diisopropyl 2,6-dimethyl-4-{3'-[N-- phenoxycarbonyl-1',2'-(1',6'-)dihydropyridyl]}-1,4-dihydropyridine-3,5-dicarboxylate [Compound D-38]”, 1.67 µM; to “Diisopropyl 2,6-dimethyl-4-{3'-[N--methoxycarbonyl-1',2'-(1',6'-)dihydropyridyl]}-1,4-dihydropyridine-3,5-dicarboxylate [Compound D-34]”, 0.131 µM. With “Dimethyl 2,6-dimethyl-4-{3'-[N--phenoxycarbonyl-1',2'-(1',6'-)dihydropyridyl]}-1,4-dihydropyridine-3,5-dicarboxylate [Compound D-36]”, the IC50 was 3.7 µM.

Still in this assay, the particulars now being: Cavia porcellus; 50% inhibition of tonic contraction to CD 5×10^-7 M; compound added 10 min before CD; 37° C., pH 7.4; read-out: Calcium channel antagonist act., inhib. act. on contractile response to CD, ID50.
Turning to `COC(=O)C1=C(C)NC(C)=C(C(=O)OCC(C)C)C1C1=CCN(C(=O)Oc2ccccc2)C=C1` [Compound D-61, 3-Isobutyl-5-methyl 2,6-dimethyl-4-[4'-(N--phenoxycarbonyl)]-1,4-dihydropyridine-3,5-dicarboxylate], the IC50 was 81 µM. On the same count and under the same terms, to `COC(=O)C1=C(C)NC(C)=C(C(=O)OC)C1C1CC=CCN1C` [Compound D-64] belongs 64.7 µM. Same read-out and setting: the same measure for `CCOC(=O)C1=C(C)NC(C)=C(C(=O)OCC)C1C1CC=CCN1C` [Compound D-65, Diethyl 2,6-dimethyl-4-[2'-(N--methyl-1',2',3',6'-tetrahydropyridyl)]-1,4-dihydropyridine-3,5-dicarboxylate]: 13 µM; for `COC(=O)C1=C(C)NC(C)=C(C(=O)OC)C1C1=CCN(C)CC1` [Compound D-66, Dimethyl 2,6-dimethyl-4-[4'-(N--methyl-1',2',3',6'-tetrahydropyridyl)]-1,4-dihydropyridine-3,5-dicarboxylate]: 181 µM; for `CCOC(=O)C1=C(C)NC(C)=C(C(=O)OCC)C1C1=CCN(C)CC1` [Compound D-67, Diethyl 2,6-dimethyl-4-[4'-(N--methyl-1',2',3',6'-tetrahydropyridyl)]-1,4-dihydropyridine-3,5-dicarboxylate]: 4.96 µM.

With `COC(=O)C1=C(C)NC(C)=C(C(=O)OC)C1C1=CCCN(C)C1` [Compound D-68, Dimethyl 2,6-dimethyl-4-[5'-(N--methyl-1',2',3',6'-tetrahydropyridyl)]-1,4-dihydropyridine-3,5-dicarboxylate], the IC50 is 3.43 µM.

Consider `CCOC(=O)C1=C(C)NC(C)=C(C(=O)OCC)C1C1=CCCN(C)C1` [Compound D-69, Diethyl 2,6-dimethyl-4-[5'-(N--methyl-1',2',3',6'-tetrahydropyridyl)]-1,4-dihydropyridine-3,5-dicarboxylate], for which the IC50 came to 1.1 µM. On the same count and under the same terms, to `COC(=O)C1=C(C)N(C)C(C)C(C(=O)OC)=C1c1ccccc1` (stereo not shown) [Compound S-1, Dimethyl 1,2,6-trimethyl-4-phenyl-1,2-dihydropyridine-3,5-dicarboxylate] belongs 2.15 µM; to `COC(=O)C1=C(C)N(C)C(C)C(C(=O)OC)=C1c1cccc(C(F)(F)F)c1` (stereo not shown) [Compound S-2, Dimethyl 1,2,6-trimethyl-4-(3-trifluoromethylphenyl)-1,2-dihydropyridine-3,5-dicarboxylate], 3.5 µM; to `COC(=O)C1=C(C)N(C)C(C)C(C(=O)OC)=C1c1ccccc1C(F)(F)F` (stereo not shown) [Compound S-3, Dimethyl 1,2,6-trimethyl-4-(2-trifluoromethylphenyl)-1,2-dihydropyridine-3,5-dicarboxylate], 12 µM. For the compound `COC(=O)C1=C(C)N(C)C(C)C(C(=O)OC)=C1c1ccc([N+](=O)[O-])cc1` (stereo not shown) [Compound S-4, Dimethyl 1,2,6-trimethyl-4-(4-nitrophenyl)-1,2-dihydropyridine-3,5-dicarboxylate], the IC50 is 23.5 µM. For `COC(=O)C1=C(C)N(C)C(C)C(C(=O)OC)=C1c1cccc([N+](=O)[O-])c1` (stereo not shown) [Compound S-5, Dimethyl 1,2,6-trimethyl-4-(3-nitrophenyl)-1,2-dihydropyridine-3,5-dicarboxylate], the IC50 came to 7.9 µM. In the case of `COC(=O)C1=C(C)N(C)C(C)C(C(=O)OC)=C1c1ccccc1[N+](=O)[O-]` (stereo not shown) [Compound S-6, Dimethyl 1,2,6-trimethyl-4-(2-nitrophenyl)-1,2-dihydropyridine-3,5-dicarboxylate], the IC50 was found to be 2.52 µM. On to `COC(=O)C1=C(C)N(C)C(C)C(C(=O)OC)=C1c1ccc(C(F)(F)F)cc1` (stereo not shown) [Compound W-1, Dimethyl 1,2,6-trimethyl-4-(4-trifluoromethylphenyl)-1,2-dihydropyridine-3,5-dicarboxylate], for which the IC50 amounted to 8.92 µM.

Consider `COC(=O)C1=C(c2ccccc2[N+](=O)[O-])C(C(=O)OC(C)C)=C(C)N(C)C1C` (stereo not shown) [Compound W-2, 3-Methyl-5-isopropyl 1,2,6-trimethyl-4-(2-nitrophenyl)-1,2-dihydropyridine-3,5-dicarboxylate], for which the IC50 turned out to be 20 µM.

For the compound `COC(=O)C1=C(C)N(C)C(C)C(C(=O)OC(C)C)=C1c1ccccc1[N+](=O)[O-]` (stereo not shown) [Compound W-3, 3-Isopropyl-5-methyl 1,2,6-trimethyl-4-(2-nitrophenyl)-1,2-dihydropyridine-3,5-dicarboxylate], the IC50 worked out at 10.5 µM. Same read-out and setting: the same measure for `CC1=C(C(=O)OC(C)C)C(c2ccccc2[N+](=O)[O-])=C(C(=O)OC(C)C)C(C)N1C` (stereo not shown) [Compound W-4, Diisopropyl 1,2,6-trimethyl-4-(2-nitrophenyl)-1,2-dihydropyridine-3,5-dicarboxylate]: 5.73 µM.

The same assay, now with this note: conclusion from Table 7.
“Diethyl 2,6-dimethyl-4-{3'-[N--methoxycarbonyl-1',2'-(1',6'-)dihydropyridyl]}-1,4-dihydropyridine-3,5-dicarboxylate [Compound D-33]”: the “calcium channel antagonist activity, comparison to Nifedipine (TM)” value is given as “active calcium channel antagonists, being comparable to Nifedipine (TM)”. The same measure, in the same setting: the same measure for “Diethyl 2,6-dimethyl-4-{3'-[N--phenoxycarbonyl-1',2'-(1',6'-)dihydropyridyl]}-1,4-dihydropyridine-3,5-dicarboxylate [Compound D-37]”: “active calcium channel antagonists, being comparable to Nifedipine (TM)”; for “Diethyl 2,6-dimethyl-4-{3'-[N--t-butoxycarbonyl-1',2'-(1',6'-)dihydropyridyl]}-1,4-dihydropyridine-3,5-dicarboxylate [Compound D-40]”: “active calcium channel antagonists, being comparable to Nifedipine (TM)”.

Take “Diisobutyl 2,6-dimethyl-4-{3'-[N--methoxycarbonyl-1',2'(1',6'-)dihydropyridyl]}-1,4-dihydropyridine-3,5-dicarboxylate [Compound D-35]”: the “calcium channel antagonist activity, comparison to Nifedipine (TM)” value was “active calcium channel antagonists, being comparable to Nifedipine (TM)”. Still for that read-out and setting: the same measure for “Diisopropyl 2,6-dimethyl-4-{3'-[N--methoxycarbonyl-1',2'-(1',6'-)dihydropyridyl]}-1,4-dihydropyridine-3,5-dicarboxylate [Compound D-34]”: “active calcium channel antagonists, being comparable to Nifedipine (TM)”.
